In patent EP4786483A1, “AURISTATIN DERIVATIVE AND ANTIBODY-DRUG CONJUGATE THEREOF” (priority 2023, dated 2025):

Key:
Assay type in all cases: cell-based
[1] = test system: CD34^+ hematopoietic stem/progenitor cells; test: Hematologic toxicity of compounds (CD34+ HSC viability, CTG); details: 240 h; cytotoxic drugs; treatment for 10 days; CTG cell viability
Protocol: Experimental objective: The effects of cytotoxic drugs on the differentiation and development of CD34^+ hematopoietic stem/progenitor cells into the megakaryocytic lineage were investigated, so as to evaluate their potential hematologic toxicity of causing thrombocytopenia.
Experimental design: After resuscitation, bone marrow-mobilized peripheral blood-derived HSCs were seeded at 2000 cells/well/180 µL in an ultra-low attachment 96-well round-bottom plate and stabilized for 4 h. The cells were treated with compounds by performing a 5-fold gradient dilution starting from the highest dose of 1 µM, resulting in a total of 9 concentration points, and this treatment was maintained continuously for 10 days. Cell viability was detected using the CTG reagent (CellTiter-Glo luminescent cell viability detection kit, manufacturer: Promega, Cat. No.: G7571). Table 2. Hematologic toxicity test results of cytotoxic drugs

[2] = test system: human breast cancer cells KPL-4; test: Cytotoxicity test for compounds (CellTiter-Glo cell proliferation inhibition); details: Homo sapiens, KPL4, 72 h; 3 days of incubation; CellTiter-Glo; read-out: KPL-4/IC50
Protocol: (§1) Biological Test Example 1: Cytotoxicity Test for Compounds
(§2) • 96-well clear flat-bottom white plate (Corning, #3610) • RPMI1640 culture medium (Gibco, #A10491-01) • Fetal Bovine Serum (Sigma-Aldrich, #F8687-500ML) • CellTiter-Glo® Luminescent Cell Viability Assay (Promega, # G7572/G7571)
(§3) Human gastric cancer cells NCI-N87 (ATCC, Cat. No.: CRL-5822), human breast cancer cells MDA-MB-468 (Cell Bank of the Committee for Type Culture Collection of the Chinese Academy of Sciences, Cat. No.: TCHu136), and human breast cancer cells KPL-4 (Nanjing Cobioer Biosciences Co., Ltd., Cat. No.: CBP60379) were washed with PBS and digested with 0.25% Trypsin-EDTA trypsin for about 3-10 min. The digestion was terminated with a complete cell culture medium. The cells were centrifuged at 1000 rpm for 5 min, and the supernatant was discarded. The cells were resuspended in a complete cell culture medium. The cell number was counted using a cell counter, and the cells were adjusted to the desired density. 90.0 µL of the cell suspension was added to each well at 3000 cells/well. The cell plate was incubated in a cell incubator at 37°C with 5% CO2 overnight.
(§4) In the experiment, a DMSO control group and test sample groups were set. The cell plate was removed from the incubator to observe cell adherence. After the cells adhered, 10.00 µL of the sample (starting from a final concentration of 10 µM, 5-fold dilution, 9 concentrations) was added to each well. After the mixture was gently shaken uniformly, the plate was incubated in the incubator.
(§5) After 3 days of incubation, 100.0 µL/well of CellTiter-Glo™ (Promega, Cat. No.: G7572/G7571) working solution was added. The plate was shaken on a thermostatic shaker to lyse the cells. After 10 min, the plate was read on a microplate reader.
(§6) Data analysis: GraphPad Prism 8.0 software was used to plot a graph with the Log value of the sample concentration as the abscissa and the Inhibition% as the ordinate. The data were analyzed by Nonlinear regression (curve fit) to obtain the IC50 value of each test sample. Table 1. Inhibition activity of compounds of the present disclosure on cell proliferation

[3] = test system: Human gastric cancer cells NCI-N87; test: as above; details: Homo sapiens, NCI-N87, 72 h, 3 days of incubation; CellTiter-Glo; read-out: NCI-87/IC50
Protocol: as §1, §2, §3, §4, §5, §6

[4] = test system: human breast cancer cells MDA-MB-468; test: as above; details: Homo sapiens, MDA-MB-468, 72 h, 3 days of incubation; CellTiter-Glo; read-out: MDA-MD-468/IC50
Protocol: as §1, §2, §3, §4, §5, §6

| SMILES | IC50 [1] [nM] | IC50 [2] [nM] | IC50 [3] [nM] | IC50 [4] [nM] |
| --- | --- | --- | --- | --- |
| C#CCN(CCc1cccc(N)c1)C(=O)[C@H](C)[C@@H](OC)[C@@H]1CCCN1C(=O)C[C@@H](OC)[C@H]([C@@H](C)CC)N(C)C(=O)[C@@H](NC(=O)[C@H](C(C)C)N(C)C)C(C)C [Example 6, (S)-N-((3R,4S,5S)-1-((S)-2-((1R,2R)-3-((3-aminophenethyl)(prop-2-yn-1-yl)amino)-1-methoxy-2-methyl-3-oxopropyl)pyrrolidin-1-yl)-3-methoxy-5-methyl-1-oxoheptan-4-yl)-2-((S)-2-(dimethylamino)-3-methylbutanamido)-N,3-dimethylbutanamide] | 3.96 | 2.96 | 3.93 | 12.6 |
| CC[C@H](C)[C@@H]([C@@H](CC(=O)N1CCC[C@H]1[C@H](OC)[C@@H](C)C(=O)N(CCc1cccc(N)c1)OC)OC)N(C)C(=O)[C@@H](NC(=O)[C@H](C(C)C)N(C)C)C(C)C [Example 7, (S)-N-((3R,4S,5S)-1-((S)-2-((1R,2R)-3-((3-aminophenethyl)(methoxy)amino)-1-methoxy-2-methyl-3-oxopropyl)pyrrolidin-1-yl)-3-methoxy-5-methyl-1-oxoheptan-4-yl)-2-((S)-2-(dimethylamino)-3-methylbutanamido)-N,3-dimethylbutanamide] | 0.144 | 0.45 | 0.89 | 13.4 |
